“And” between values parts separate entries of the source, which are not always exact repeats. Equal entries are not always repeated.
System: NT2/D1-R1 control and DNMT3B knockdown cells
Experiment: Genome-wide expression analysis with PAM clusters, control and DNMT3B knockdown cells (Tables 8-14)
Settings: sh-Ctrl + aza; 10 nM decitabine, 3 days

Nc1ncn([C@H]2C[C@H](O)[C@@H](CO)O2)c(=O)n1 [aza]
ADAMTSL2 NM_014694 expression Mean: 295.667
ADM NM_001124 expression Mean: 937.101
AFMID NM_0010109 expression Mean: 303.389
AHNAK NM_001620 expression Mean: 522.882
ANAPC13 NM_015391 expression Mean: 549.873
ANXA1 NM_000700 expression Mean: 1242.05
ANXA2 NM_0010028 expression Mean: 3575.79
AW972815 expression Mean: 1125.31
BAG3 NM_004281 expression Mean: 1275
BCL11A NM_022893 expression Mean: 399.892
BIRC5 NM_001168 expression Mean: 873.507
BTG2 NM_006763 expression Mean: 474.998
C9orf6 NM_017832 expression Mean: 333.034
C10orf2 NM_021830 expression Mean: 515.45
C10orf58 NM_032333 expression Mean: 983.117
C16orf93 NM_0010149 expression Mean: 392.581
CA2 NM_000067 expression Mean: 678.212
CATSPER2 NM_172097 expression Mean: 1806.2
CAV1 NM_001753 expression Mean: 740.14
CCND1 NM_053056 expression Mean: 4666.94
CDKN1A NM_000389 expression Mean: 1938.97
CDX1 NM_001804 expression Mean: 802.577
CEACAM1 NM_0010249 expression Mean: 229.793
CIRH1A NM_032830 expression Mean: 1971.98
CLCF1 NM_013246 expression Mean: 340.544
CLDN10 NM_006984 expression Mean: 407.272
CNN3 NM_001839 expression Mean: 1086.56
COL7A1 NM_000094 expression Mean: 1054.31
COL17A1 NM_000494 expression Mean: 521.166
CRABP2 NM_001878 expression Mean: 2128.79
CRIPT NM_014171 expression Mean: 613.112
CTNNB1 NM_0010982 expression Mean: 342.941
CUEDC1 NM_017949 expression Mean: 525.909
CXCL14 NM_004887 expression Mean: 366.998
CXXC1 NM_014593 expression Mean: 1743.77
CXorf40A NM_178124 expression Mean: 324.823
CYR61 NM_001554 expression Mean: 634.193
DDX51 NM_175066 expression Mean: 1671.08
DIMT1L NM_014473 expression Mean: 893.36
DUSP5 NM_004419 expression Mean: 1627.42
EBI3 NM_005755 expression Mean: 650.267
EIF2C2 NM_012154 expression Mean: 794.459
ELF3 NM_004433 expression Mean: 306.008
ELF4 NM_001421 expression Mean: 721.011
EMILIN2 NM_032048 expression Mean: 650.943
EOMES NM_005442 expression Mean: 387.137
FAM53C NM_016605 expression Mean: 2860.96
FAM123B NM_152424 expression Mean: 1182.82
FLJ40504 NM_173624 expression Mean: 3003.39
FOXO3 NM_201559 expression Mean: 639.391
GAD1 NM_000817 expression Mean: 287.008
GAD1 NM_013445 expression Mean: 372.485
GALNAC4S-6 NM_015892 expression Mean: 704.001
GEMIN4 NM_015721 expression Mean: 1411.28
GLIPR2 NM_022343 expression Mean: 792.16
GNL3L NM_019067 expression Mean: 392.011
GNL3 NM_206826 expression Mean: 1332.63
GPATCH4 NM_182679 expression Mean: 1117.44
GPER NM_0010399 expression Mean: 305.922
GPR56 NM_201524 expression Mean: 378.312
GPR56 NM_201525 expression Mean: 392.608
GPR177 NM_0010022 expression Mean: 251.287 and 391.197
GPR177 NM_024911 expression Mean: 515.533
GTF3C6 NM_138408 expression Mean: 503.701
H2AFY NM_004893 expression Mean: 2387.37
HARS NM_002109 expression Mean: 1887.22
HCLS1 NM_005335 expression Mean: 319.822
HES2 NM_019089 expression Mean: 310.888
HSPA1A NM_005346 expression Mean: 699.362
HSPA8 NM_006597 expression Mean: 3448.31
HSPA8 NM_153201 expression Mean: 5257.42
HSPH1 NM_006644 expression Mean: 565.151
ID3 NM_002167 expression Mean: 3392.56
IER3 NM_003897 expression Mean: 835.676
IL2RB NM_000878 expression Mean: 274.617
ITPRIP NM_033397 expression Mean: 346.452
JTV1 NM_006303 expression Mean: 1876.43
KAT2A NM_021078 expression Mean: 1965.54
KIAA0101 NM_014736 expression Mean: 468.29
KRT8 NM_002273 expression Mean: 3394.59
LEFTY2 NM_003240 expression Mean: 1161.57

Source: patent US9476099B2 (TRUSTEES OF DARTMOUTH COLLEGE, priority 2012, dated 2016)
